# Test results as given in patent US20080114007A1 (priority 2006, published 2008).
# Target: CSF-1R (Homo sapiens, UniProt P07333)
# Assay: Peptide (non-phosphorylated) assay, fluorescence polarization competition immunoassay
# Format: biochemical
# Settings: 0.7 nM CSF-1R, 308 μM SYEGNSYTFIDPTQ peptide, 1 mM ATP, 80 min; mean of at least three determinations; read-out: c-fms Peptide IC50
# Description: The kinase reaction was initiated by adding 1 μL of 10 mM ATP in assay buffer. […] Positive and negative control wells were included on each plate, where 4% DMSO in assay buffer was substituted for the compound; in addition, positive control wells received 1.2 μL of 50 mM EDTA before the start of the reaction.
# The plates were covered and incubated at room temperature for 80 min. Reactions were stopped by addition of 1.2 μL of 50 mM EDTA. Each well then received 10 μL of a 1:1:3 mixture of 10× anti-phosphotyrosine antibody, 10×PTK green tracer, and FP dilution buffer, respectively (Cat. # P2837, Invitrogen, Carlsbad, Calif.). The plates were covered, incubated for 30 min at room temperature, and the fluorescence polarization was read on an Analyst plate reader (Molecular Devices).
# CSF-1R, sequence (P07333 20-972): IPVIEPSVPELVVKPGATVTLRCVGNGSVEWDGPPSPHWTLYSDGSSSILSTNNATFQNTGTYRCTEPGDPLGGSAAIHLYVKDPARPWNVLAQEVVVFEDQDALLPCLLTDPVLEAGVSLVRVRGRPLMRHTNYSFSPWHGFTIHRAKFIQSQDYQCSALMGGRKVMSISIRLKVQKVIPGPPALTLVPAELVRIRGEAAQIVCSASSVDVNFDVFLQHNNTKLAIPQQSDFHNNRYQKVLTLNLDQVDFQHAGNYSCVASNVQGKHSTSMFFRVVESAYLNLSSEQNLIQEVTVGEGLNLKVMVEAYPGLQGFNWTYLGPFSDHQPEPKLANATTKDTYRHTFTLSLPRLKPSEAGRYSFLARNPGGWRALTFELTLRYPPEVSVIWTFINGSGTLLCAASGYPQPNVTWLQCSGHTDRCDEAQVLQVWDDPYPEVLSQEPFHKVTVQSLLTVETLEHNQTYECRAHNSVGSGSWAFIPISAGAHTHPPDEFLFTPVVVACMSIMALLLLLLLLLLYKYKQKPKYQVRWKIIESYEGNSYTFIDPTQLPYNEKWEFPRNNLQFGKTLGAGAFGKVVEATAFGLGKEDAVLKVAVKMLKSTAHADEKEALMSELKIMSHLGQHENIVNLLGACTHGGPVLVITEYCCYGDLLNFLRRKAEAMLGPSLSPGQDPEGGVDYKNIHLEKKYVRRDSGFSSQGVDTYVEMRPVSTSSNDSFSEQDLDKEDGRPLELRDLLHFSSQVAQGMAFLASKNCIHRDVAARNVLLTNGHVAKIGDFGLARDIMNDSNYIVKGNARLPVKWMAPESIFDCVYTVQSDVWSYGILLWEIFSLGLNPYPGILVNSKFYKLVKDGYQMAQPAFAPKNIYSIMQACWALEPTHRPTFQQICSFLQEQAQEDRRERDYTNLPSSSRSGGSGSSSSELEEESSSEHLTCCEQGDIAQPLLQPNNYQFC
row,SMILES,IC50
1,"CONC(=O)c1cn(-c2ccc3c(c2)CCC3)c2nc(Nc3ccc([C@@]4(O)CCN(C)C[C@@H]4O)cc3)ncc2c1=O [Cpd 236, 2-{4-[(3S,4S)-(3,4-dihydroxy-1-methyl-piperidin-4-yl)]-phenylamino}-8-indan-5-yl-5-oxo-5,8-dihydro-pyrido[2,3-d]pyrimidine-6-carboxylic acid methoxy-amide]",0.47 nM
2,"CONC(=O)c1cn(-c2ccc3c(c2)CCC3)c2nc(Nc3ccc(CCNS(C)(=O)=O)cc3)ncc2c1=O [Cpd 82, 8-indan-5-yl-2-[4-(2-methanesulfonylamino-ethyl)-phenylamino]-5-oxo-5,8-dihydro-pyrido[2,3-d]pyrimidine-6-carboxylic acid methoxy-amide]",3.6 nM
3,"CONC(=O)c1cn(-c2ccc3c(c2)CCC3)c2nc(Nc3ccc4cc[nH]c4c3)ncc2c1=O [Cpd 289, 8-indan-5-yl-2-(1H-indol-6-ylamino)-5-oxo-5,8-dihydro-pyrido[2,3-d]pyrimidine-6-carboxylic acid methoxy-amide]",2 nM
4,"CCc1ccc(-n2cc(C(=O)NOC)c(=O)c3cnc(Nc4ccc5c(c4)OCCOCCOCCOCCO5)nc32)cc1 [Cpd 297, 8-(4-ethyl-phenyl)-2-(6,7,9,10,12,13,15,16-octahydro-5,8,11,14,17-pentaoxa-benzocyclopentadecen-2-ylamino)-5-oxo-5,8-dihydro-pyrido[2,3-d]pyrimidine-6-carboxylic acid methoxy-amide]",0.4 nM
5,"C#Cc1ccc(-n2cc(C(N)=O)c(=O)c3cnc(Nc4ccc(CCN5CCN(C)CC5)cc4)nc32)cc1 [Cpd 30, 8-(4-ethynyl-phenyl)-2-{4-[2-(4-methyl-piperazin-1-yl)-ethyl]-phenylamino}-5-oxo-5,8-dihydro-pyrido[2,3-d]pyrimidine-6-carboxylic acid amide]",14 nM
6,"CONC(=O)c1cn(-c2ccc3c(c2)CCC3)c2nc(Nc3ccccc3)ncc2c1=O [Cpd 300, 8-indan-5-yl-5-oxo-2-phenylamino-5,8-dihydro-pyrido[2,3-d]pyrimidine-6-carboxylic acid methoxy-amide]",1.5 nM
7,"CONC(=O)c1cn(-c2ccc3c(c2)CCC3)c2nc(Nc3ccc(CCS(=O)(=O)NC(C)C)cc3)ncc2c1=O [Cpd 77, 8-indan-5-yl-2-[4-(2-isopropylsulfamoyl-ethyl)-phenylamino]-5-oxo-5,8-dihydro-pyrido[2,3-d]pyrimidine-6-carboxylic acid methoxy-amide]",0.95 nM
8,"CCc1ccc(-n2cc(C(=O)NOC)c(=O)c3cnc(Nc4cccc(C5(O)CCCN(CC)C5)c4)nc32)cc1 (stereo not drawn) [Cpd 278, 2-[3-(1-ethyl-3-hydroxy-piperidin-3-yl)-phenylamino]-8-(4-ethyl-phenyl)-5-oxo-5,8-dihydro-pyrido[2,3-d]pyrimidine-6-carboxylic acid methoxy-amide]",4.9 nM
9,"CONC(=O)c1cn(-c2ccc(OC(F)(F)F)cc2)c2nc(Nc3ccc(C4CCN(CCO)CC4)cc3)ncc2c1=O [Cpd 162, 2-{4-[1-(2-hydroxyethyl)-piperidin-4-yl]-phenylamino}-5-oxo-8-(4-trifluoromethoxy-phenyl)-5,8-dihydropyrido[2,3-d]pyrimidine-6-carboxylic acid methoxy-amide]",2.1 nM
10,"CONC(=O)c1cn(-c2ccc3c(c2)CCC3)c2nc(Nc3ccc([C@]4(O)CCN(C)C[C@H]4O)cc3)ncc2c1=O [Cpd 250, 2-{4-[(3R,4R)-(3,4-dihydroxy-1-methyl-piperidin-4-yl)]-phenylamino}-8-indan-5-yl-5-oxo-5,8-dihydro-pyrido[2,3-d]pyrimidine-6-carboxylic acid methoxy-amide]",0.39 nM
11,"CONC(=O)c1cn(-c2ccc3c(c2)CCC3)c2nc(Nc3ccc(CCN4CCC(F)(F)C4)cc3)ncc2c1=O [Cpd 241, 2-{4-[2-(3,3-difluoro-pyrrolidin-1-yl)-ethyl]-phenylamino}-8-indan-5-yl-5-oxo-5,8-dihydro-pyrido[2,3-d]pyrimidine-6-carboxylic acid methoxy-amide]",1.7 nM
12,"CCc1ccc(-n2cc(C(=O)NOC)c(=O)c3cnc(Nc4ccc5cc[nH]c5c4)nc32)cc1 [Cpd 286, 8-(4-ethyl-phenyl)-2-(1H-indol-6-ylamino)-5-oxo-5,8-dihydro-pyrido[2,3-d]pyrimidine-6-carboxylic acid methoxy-amide]",1.3 nM

# Continued by falling IC50, values first:
row,IC50,SMILES
1,14 nM,"CCc1ccc(-n2cc(C(=O)NOC)c(=O)c3cnc(Nc4ccc(-c5ccc(N(C)C)cc5)cc4)nc32)cc1 [Cpd 306, 2-(4′-dimethylamino-biphenyl-4-ylamino)-8-(4-ethyl-phenyl)-5-oxo-5,8-dihydro-pyrido[2,3-d]pyrimidine-6-carboxylic acid methoxy-amide]"
2,9.6 nM,"CN1CCN(c2ccc(Nc3ncc4c(=O)c(C(N)=O)cn(Cc5ccccc5)c4n3)cc2)CC1 [Cpd 114, 8-benzyl-2-[4-(4-methyl-piperazin-1-yl)-phenylamino]-5-oxo-5,8-dihydro-pyrido[2,3-d]pyrimidine-6-carboxylic acid amide]"
3,4.1 nM,"CC(C)ONC(=O)c1cn(C2CCCC2)c2nc(Nc3ccc(CCN4CCCC4)cc3)ncc2c1=O [Cpd 41, 8-cyclopentyl-5-oxo-2-[4-(2-pyrrolidin-1-yl-ethyl)-phenylamino]-5,8-dihydro-pyrido[2,3-d]pyrimidine-6-carboxylic acid isopropoxy-amide]"
4,2.3 nM,"CONC(=O)c1cn(-c2ccc3c(c2)CCC3)c2nc(Nc3ccc(CCc4n[nH]c(C)n4)cc3)ncc2c1=O [Cpd 172, 8-indan-5-yl-2-{4-[2-(5-methyl-1H-[1,2,4]triazol-3-yl)-ethyl]-phenylamino}-5-oxo-5,8-dihydro-pyrido[2,3-d]pyrimidine-6-carboxylic acid methoxy-amide]"
5,1.8 nM,"CONC(=O)c1cn(C2CCCCC2)c2nc(Nc3ccc(N4CC(C)NC(C)C4)cc3)ncc2c1=O (stereo not drawn) [Cpd 24, 8-cyclohexyl-2-[4-(3,5-dimethyl-piperazin-1-yl)-phenylamino]-5-oxo-5,8-dihydro-pyrido[2,3-d]pyrimidine-6-carboxylic acid methoxy-amide]"
6,1.8 nM,"CCOC(=O)CN1CCC(c2ccc(Nc3ncc4c(=O)c(C(=O)NOC)cn(-c5ccc6c(c5)CCC6)c4n3)cc2)CC1 [Cpd 86, {4-[4-(8-indan-5-yl-6-methoxycarbamoyl-5-oxo-5,8-dihydro-pyrido[2,3-d]pyrimidin-2-ylamino)-phenyl]-piperidin-1-yl}-acetic acid ethyl ester]"
7,1.6 nM,"CCc1ccc(-n2cc(C(=O)NOC)c(=O)c3cnc(Nc4cccc(OCCCOC)c4)nc32)cc1 [Cpd 216, 8-(4-ethyl-phenyl)-2-[3-(3-methoxy-propoxy)-phenylamino]-5-oxo-5,8-dihydro-pyrido[2,3-d]pyrimidine-6-carboxylic acid methoxy-amide]"
8,1.2 nM,"CONC(=O)c1cn(-c2ccc3c(c2)CCC3)c2nc(Nc3ccc(C4CCN(C(C)=O)CC4)cc3)ncc2c1=O [Cpd 69, 2-[4-(1-acetyl-piperidin-4-yl)-phenylamino]-8-indan-5-yl-5-oxo-5,8-dihydro-pyrido[2,3-d]pyrimidine-6-carboxylic acid methoxy-amide]"
9,1 nM,"CONC(=O)c1cn(-c2ccc3c(c2)CCC3)c2nc(Nc3ccc(CCN4CCC(=O)CC4)cc3)ncc2c1=O [Cpd 83, 8-indan-5-yl-5-oxo-2-{4-[2-(4-oxo-piperidin-1-yl)-ethyl]-phenylamino}-5,8-dihydro-pyrido[2,3-d]pyrimidine-6-carboxylic acid methoxy-amide]"
10,0.9 nM,"CONC(=O)c1cn(-c2ccc3c(c2)CCC3)c2nc(Nc3ccc(Cn4cncn4)cc3)ncc2c1=O [Cpd 283, 8-indan-5-yl-5-oxo-2-(4-[1,2,4]triazol-1-ylmethyl-phenylamino)-5,8-dihydro-pyrido[2,3-d]pyrimidine-6-carboxylic acid methoxy-amide]"
11,0.6 nM,"CCONC(=O)c1cn(-c2ccc(CC)cc2)c2nc(Nc3ccc(C4CCN(CCCO)CC4)cc3)ncc2c1=O [Cpd 186, 8-(4-ethyl-phenyl)-2-{4-[1-(3-hydroxy-propyl)-piperidin-4-yl]-phenylamino}-5-oxo-5,8-dihydro-pyrido[2,3-d]pyrimidine-6-carboxylic acid ethoxy-amide]"
12,0.6 nM,"CCONC(=O)c1cn(-c2ccc(CC)cc2)c2nc(Nc3ccc(CCN4CCN(C)CC4)cc3)ncc2c1=O [Cpd 57, 8-(4-ethyl-phenyl)-2-{4-[2-(4-methyl-piperazin-1-yl)-ethyl]-phenylamino}-5-oxo-5,8-dihydro-pyrido[2,3-d]pyrimidine-6-carboxylic acid ethoxy-amide]"
13,0.59 nM,"CONC(=O)c1cn(-c2ccc3c(c2)CCC3)c2nc(Nc3ccc(CCN4CCC4)cc3)ncc2c1=O [Cpd 262, 2-[4-(2-azetidin-1-yl-ethyl)-phenylamino]-8-indan-5-yl-5-oxo-5,8-dihydro-pyrido[2,3-d]pyrimidine-6-carboxylic acid methoxy-amide]"
14,0.4 nM,"CONC(=O)c1cn(-c2ccc3c(c2)CCC3)c2nc(Nc3ccc(CCN4CCNCC4)cc3)ncc2c1=O [Cpd 144, 8-indan-5-yl-5-oxo-2-[4-(2-piperazin-1-yl-ethyl)-phenylamino]-5,8-dihydro-pyrido[2,3-d]pyrimidine-6-carboxylic acid methoxy-amide]"
15,0.36 nM,"CCc1cccc(-n2cc(C(=O)NOC)c(=O)c3cnc(Nc4ccc(C5CCN(C)CC5)cc4)nc32)c1 [Cpd 212, 8-(3-ethyl-phenyl)-2-[4-(1-methyl-piperidin-4-yl)-phenylamino]-5-oxo-5,8-dihydro-pyrido[2,3-d]pyrimidine-6-carboxylic acid methoxy-amide]"
